Our source for the viability, T/C and IC50 values is PubChem BioAssay AID1963837 (Molecular Pharmacology Branch, DTP, NCI, 2024).

Where “and” joins values, the source holds several entries; their conditions need not be identical. Identical values can stand only once.

For the experiment, the system named is 843126-344-R-J1-PDC complex spheroid viability. Put plainly: Anticancer human tumor 843126-344-R-J1-PDC patient-derived melanoma cell line growth inhibition [POLQ]. Particulars: for viability, T/C: stronger effect = lower value. On the procedure:
Multicellular complex tumor spheroid response to Polymerase (POL) inhibitors (novobiocin, ART-558, RP6685) in combination with a variety of drugs and investigational agents in selected tumor cell lines
The POL inhibitors (novobiocin, ART-558, and RP6685) were evaluated both individually and in combination with standard of care and investigational anticancer small molecules within a complex spheroid model of solid tumors. . Complex spheroids include a stromal component modeled by human endothelial cells (HUVEC) and fibroblasts modeled by human mesenchymal stem cells (MSCs). The concentration ranges selected for each drug and investigational agent were based upon clinically achievable concentrations if the clinical Cmax of the agent was known.
Compounds. The drugs and investigational agents: novobiocin (NSC847541), ART-558 (NSC835418), RP-6685 (NSC848927), peposertib (NSC802822), ceralasertib (NSC780249), elimusertib (NSC800525), camonsertib (NSC841442), AZD-1390 (NSC803789), olaparib (NSC753686), talazoparib (NSC767125), rucaparib (NSC756644), sotorasib (NSC818433), MRTX-1133 (NSC836407), SN-38 (NSC673596), topotecan (NSC609699), epotoside (NSC141540), doxorubicin (NSC123127), gemcitabine (NSC613327), 5-fluorouracil (NSC19893), paclitaxel (NSC125973), vemurafenib (NSC761431), MSA-2 (NSC828583), SN-011 (NSC837082), adavosertib (NSC754352), prexasertib (NSC758257), carboplatin (NSC241240) and oxaliplatin (NSC266046), were obtained from the National Cancer Institute (NCI) Developmental Therapeutics Program Chemical Repository (21). The FDA-approved anticancer drug set is available from the Developmental Therapeutics Program at https://dtp.cancer.gov/organization/dscb/obtaining/. […] The stock solutions were prepared in dimethyl sulfoxide (DMSO, Sigma-Aldrich, St. Louis, MO, cat. D2650), except for the platinum compounds which were prepared in saline (Quality Biological, Gaithersburg, MD, cat. 114-055-101), at 800-fold the tested concentration and stored at -70 degrees C prior to their use. All drugs and investigational agents were tested over a range starting from a high concentration at or near the clinical Cmax and decreasing in half-log increments. If the clinical Cmax for an agent had not been determined, the highest concentration tested was 10 microM, except for SN-38, which was tested at a high concentration of 1 microM.
Cell Culture. All cells were maintained in an incubator at 37 degrees C and 5% CO2 with 95% humidity. The PDC lines were cultured according to standard operating procedures established by the NCI PDMR (https://pdmr.cancer.gov). Table 3 of the manuscript, lists the cell lines along with the number of the three cell types plated to form the mct-spheroids and media for tumor cell growth. After thawing, all PDC lines, except 997537-175-T-J1-PDC and 415267-285-R-J2-PDC, were cultured in Matrigel-coated flasks prepared with a working solution of 1X Ham's F-12 nutrient mix, without supplementation (Thermo Fisher Scientific, cat. 11765054), 100 U/mL penicillin-streptomycin (Thermo Fisher Scientific, cat. 15140122), and 2.5% Matrigel (Corning Inc., Corning, NY, cat. 354248) for the first three passages. The two PDC lines 997537-175-T-J1-PDC and 415267-285-R-J2-PDC were cultured on uncoated flasks. The 857933-349-R-J2-PDC line was cultured in 6C/Colon 1B media containing advanced DMEM/F-12 (Thermo Fisher Scientific, cat. 12634028), 10 mM HEPES (Thermo Fisher Scientific, cat. 15630080), 1X GlutaMAX supplement (Thermo Fisher Scientific, cat. 35050061), 0.1 mg/mL primocin (InvivoGen, San Diego, CA, cat. ant-pm-2), 10% defined fetal bovine serum, heat inactivated (HyClone Laboratories Inc., Logan, UT, cat. SH30070.03HI), 50% L-WRN conditioned media (ATCC, cat. CRL-3276), 1.25 mM N-Acetyl-L-cysteine (Sigma-Aldrich, cat. A9165), 10 mM nicotinamide (Sigma-Aldrich, cat. N0636), 1X B-27 supplement (Thermo Fisher Scientific, cat. 17504044), 1X N-2 supplement (Thermo Fisher Scientific, cat. […]
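For viability, T/C in this document: spheroids exposed to drugs for seven days before readout.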

In the case of `Cn1ncnc1[C@H]1c2n[nH]c(=O)c3cc(F)cc(c23)N[C@@H]1c1ccc(F)cc1`, the viability, T/C by setting is: (compound 0.000316 µM) 85.9% and 104% and 97.7%; (compound 0.001 µM) 103% and 90.3% and 99.6%; (compound 0.00316 µM) 103% and 95% and 84.3%; (compound 0.01 µM) 86.2% and 97.3% and 92.6%; (compound 0.0316 µM) 86.9% and 122% and 88.4%; (compound 0.1 µM) 84.2% and 90.4% and 88%. Also, the 50% inhibitory concentration (IC50) (curve of compound) was over 0.1 µM.

As for `Cc1cccc(N(C)C(=O)C2C(O)CCN2c2nc(C)cc(C(F)(F)F)c2C#N)c1` (stereo unspecified), the viability, T/C is 100% [middle of 12 runs] (compound 0.316 µM), 97.7% [middle of 12 runs] (compound 1 µM) and 95.7% [middle of 12 runs] (compound 10 µM). Further, the 50% inhibitory concentration (IC50) (compound alone, run of 01/08/2024) is over 10 µM and the half-inhibitory concentration (IC50) (compound alone, run of 01/19/2024) is over 10 µM.

On to `O=C(c1cc(Cc2n[nH]c(=O)c3ccccc23)ccc1F)N1CCN(C(=O)C2CC2)CC1` + COC1C(OC(N)=O)C(O)C(Oc2ccc3c(O)c(NC(=O)c4ccc(O)c(CC=C(C)C)c4)c(=O)oc3c2C)OC1(C)C, for which the IC50 (curve of first compound, second compound 0.0316 µM) was over 10 µM; the 50% inhibitory concentration (IC50) (curve of first compound, second compound 0.1 µM) was over 10 µM; the half-inhibitory concentration (IC50) (curve of first compound, second compound 0.316 µM) was over 10 µM; the IC50 (curve of first compound, second compound 1 µM) was over 10 µM; the 50% inhibitory concentration (IC50) (curve of first compound, second compound 3.16 µM) was over 10 µM; the IC50 (curve of first compound, second compound 10 µM) was over 10 µM. The viability, T/C by setting is: (second compound 0.0316 µM, first compound 0.0316 µM) 81.4%; (second compound 0.0316 µM, first compound 0.1 µM) 94.9%; (second compound 0.0316 µM, first compound 0.316 µM) 76.9%; (second compound 0.0316 µM, first compound 1 µM) 82.5%; (second compound 0.0316 µM, first compound 3.16 µM) 80.7%; (second compound 0.0316 µM, first compound 10 µM) 63.8%. Further, the viability, T/C runs as follows: (second compound 0.1 µM, first compound 0.0316 µM) 76.2%; (second compound 0.1 µM, first compound 0.1 µM) 98.7%; (second compound 0.1 µM, first compound 0.316 µM) 90.2%; (second compound 0.1 µM, first compound 1 µM) 71.9%; (second compound 0.1 µM, first compound 3.16 µM) 80.7%; (second compound 0.1 µM, first compound 10 µM) 61.6%. Besides, the viability, T/C is 91.8% (second compound 0.316 µM, first compound 0.0316 µM); 71.1% (second compound 0.316 µM, first compound 0.1 µM); 97.9% (second compound 0.316 µM, first compound 0.316 µM); 81.5% (second compound 0.316 µM, first compound 1 µM); 80.7% (second compound 0.316 µM, first compound 3.16 µM); 73.5% (second compound 0.316 µM, first compound 10 µM). Also, the viability, T/C reads like this: (second compound 1 µM, first compound 0.0316 µM) 83.3%; (second compound 1 µM, first compound 0.1 µM) 85%; (second compound 1 µM, first compound 0.316 µM) 92.8%; (second compound 1 µM, first compound 1 µM) 92.3%; (second compound 1 µM, first compound 3.16 µM) 100%; (second compound 1 µM, first compound 10 µM) 63.6%. The viability, T/C is 71.1% (second compound 3.16 µM, first compound 0.0316 µM); 81.7% (second compound 3.16 µM, first compound 0.1 µM); 106% (second compound 3.16 µM, first compound 0.316 µM); 76.5% (second compound 3.16 µM, first compound 1 µM); 83.5% (second compound 3.16 µM, first compound 3.16 µM); 66.1% (second compound 3.16 µM, first compound 10 µM). For the same compound, the viability, T/C runs as follows: (second compound 10 µM, first compound 0.0316 µM) 91%; (second compound 10 µM, first compound 0.1 µM) 72%; (second compound 10 µM, first compound 0.316 µM) 96.1%; (second compound 10 µM, first compound 1 µM) 80.6%; (second compound 10 µM, first compound 3.16 µM) 80.6%; (second compound 10 µM, first compound 10 µM) 61%.

`CCc1cc2c(N3CCc4c(cc(Cn5ccnc5)cc4-c4cn(C)nc4C(F)(F)F)C3=O)cc(C)nc2c(OC)n1`: the viability, T/C is, setting by setting: (compound 0.0316 µM) 103% and 106% and 77.7%; (compound 0.1 µM) 81.1% and 72.2% and 85.4%; (compound 0.316 µM) 76.4% and 87.8% and 98.1%; (compound 1 µM) 64.2% and 76.7% and 85.2%; (compound 3.16 µM) 71.5% and 72.6% and 64.6%; (compound 10 µM) 54.2% and 60.3%. The IC50 (curve of compound) is over 10 µM.
